Experimental data from patent US20220364065A1, “COMPOSITION FOR REMOVING PLURIPOTENT STEM CELLS AND METHOD OF REMOVING PLURIPOTENT STEM CELLS” (NATIONAL UNIVERSITY CORPORATION HOKKAIDO UNIVERSITY, priority 2018, published 2022).

How the values were obtained:
Type in all cases: cell-based
[1] = test system: mouse neural stem cells and mouse ES cells; experiment: Mixed culture of neural stem cells and ES cells, Nestin/Nanog immunostaining; conditions: 10 μM BRQ, 3 days
Method: The cells were fixed and immunostained as described in Kondo et al., Genes Dev. 2004, Vol. 18, Issue 23, pp. 2963-72. […] For the culture of mNSCs, PDL+fibronectin-coated ones were used (see Johe KK et al., Genes Dev. 1996, Vol. 10, Issue 24, pp. 3129 to 3140). For the culture of ES cells and iPS cells, gelatin-coated ones were used.
For immunostaining, the cells were first washed once with PBS, then fixed by adding 4% paraformaldehyde and incubating for 10 minutes at room temperature. The cells were replaced with PBS containing 0.3% Triton X100 and incubated for 5 minutes at room temperature, then replaced with PBS containing 0.3% Triton X100 and 10% FCS (blocking solution) and incubated for 30 minutes at room temperature. The solution was replaced with primary antibody solution diluted in blocking solution and incubated for 2 hours at room temperature. After washing three times with PBS, secondary antibody and DAPI solution diluted with blocking solution were added and incubated at room temperature for 2 hours. After washing three times with PBS, the cells were sealed with anti-fading agent (manufactured by DAKO, code number: 53023) and observed under a microscope. […] In addition, fluorescence images were acquired with an Axiolmager M1 microscope (manufactured by Carl Zeiss).
The cells were then analyzed by immunostaining as described above.

[2] = test system: mouse ES cells; experiment: Immunostaining of pluripotent stem cell markers (Sox2, Nanog, Oct4), ES cells
Method: The cells were fixed and immunostained as described in Kondo et al., Genes Dev. […] For the culture of ES cells and iPS cells, gelatin-coated ones were used.
For immunostaining, the cells were first washed once with PBS, then fixed by adding 4% paraformaldehyde and incubating for 10 minutes at room temperature. The cells were replaced with PBS containing 0.3% Triton X100 and incubated for 5 minutes at room temperature, then replaced with PBS containing 0.3% Triton X100 and 10% FCS (blocking solution) and incubated for 30 minutes at room temperature. The solution was replaced with primary antibody solution diluted in blocking solution and incubated for 2 hours at room temperature. After washing three times with PBS, secondary antibody and DAPI solution diluted with blocking solution were added and incubated at room temperature for 2 hours. […] Note that the cell nuclei were visualized by contrast staining with DAPI solution (1 μg/mL, manufactured by Dojindo, product code: D523). In addition, fluorescence images were acquired with an Axiolmager M1 microscope (manufactured by Carl Zeiss).
LMB is a specific inhibitor of CRM1, also known as Exportin 1.

[3] = test system: mouse iPS cells; experiment: Quantitative RT-PCR of Sox2, Oct4, Nanog, iPS cells; conditions: 10 μM BRQ, 2 days
Method: First, total RNA was prepared from cells using the RNeasy kit (manufactured by Qiagen), and cDNA was synthesized using the Transcriptor First Strand cDNA Synthesis Kit (manufactured by Roche Applied Science).
Then, the cDNA was used as a template, and Thunderbird Cyber qPCR Mix (manufactured by TOYOBO) and Step One Plus (manufactured by Thermo Fisher Scientific) were used to perform real-time PCR. The reaction conditions were set at 95° C. for 15 seconds and 60° C. for 30 seconds for 40 cycles, and the oligonucleotide primers shown below were used to amplify each target gene.
Note that the expression level of each target gene detected in this way was normalized by the relative quantification method (delta delta Ct method) based on the expression level of 18S ribosomal RNA.

[4] = ES cells, 2 days, BRQ 10 μM (ZVAD 100 nM where added)
[5] = mouse ES cells, 10 μM BRQ, 24 hours

For `Cc1c(-c2ccc(-c3ccccc3F)cc2)nc2ccc(F)cc2c1C(=O)O` [BRQ, 6-fluoro-2-(2′-fluoro-1,1′-biphenyl-4-yl)-3-methyl-4-quinoline-sodium carboxylate], the “ES cells (Nanog) in mixed culture” value ([1]; ES cell medium) was “lost”, the “cytotoxicity to neural stem cells (Nestin) in mixed culture” value ([1]; mixed with ES cells) was “no obvious cytotoxicity” and the Nanog-positive cells [2, 4] was 6%. The Oct4-positive cells [2, 4] was 2%, the “cells in which expression of Sox2 was not observed” value [2, 5] was “about 30%” and the “inhibition of cell proliferation or cell death” value [2, 5] was “inhibition of cell proliferation or cell death was already observed”. For the same compound, the “subcellular localization of Nanog” value ([2]; mouse ES cells, 10 μM BRQ, 2 days) was “distributed in the cytoplasm” and the “expression levels of marker genes (Sox2, Oct4, Nanog)” value [3] was “generally decreased”.
